The source of these data is patent US10233190B2, “IDO inhibitors” (NewLink Genetics Corporation, priority 2011, dated 2019).

One data set deals with LLC murine tumor cells. The experiment in a line: In vivo antitumor activity, LLC tumor allograft, alone or with chemotherapy. Conditions: for antitumor effect: LLC tumor in C57Bl6 mice, single agent or in combination with chemotherapy.
Data set [1] can be described thus: Steady state plasma concentration from subcutaneous osmotic pumps.

For `OC(CC1c2ccccc2-c2cncn21)C1CCCCC1` (stereo not drawn) [Compound 1304, 1-cyclohexyl-2-(5H-imidazo[5,1-a]isoindol-5-yl)ethanol], the antitumor effect result in the data set with LLC murine tumor cells is on record as “significant antitumor effect”. In the data set on LLC murine tumor cells (LLC tumor, after 60 days), the “long term survival fraction, mice tumor free after 60 days” value was 70-80%. The “median survival time (log rank test)” value with LLC murine tumor cells (LLC tumor, single agent or in combination with cyclophosphamide) is “statistically significant difference in median survival time”. Further, the “average tumor volume over time” value in the data set on LLC murine tumor cells (LLC tumor, single agent or in combination with cyclophosphamide 100 mg/kg i.p.) was “very sensitive to the effects of treatment”. In data set [1] (s.c. osmotic pumps, 200 uL of 30 mg/mL solution, 1 uL per hour for 8 days), the “steady state plasma concentration of drug” value lay in the range of 0.5 to 3 µM.
Take `OC(CC1c2c(F)cccc2-c2cncn21)C1CCCCC1` (stereo not drawn) [Compound 1357, 1-cyclohexyl-2-(6-fluoro-5H-imidazo[5,1-a]isoindol-5-yl)ethanol]: the antitumor effect result with LLC murine tumor cells was “significant antitumor effect”. Also, the “median survival time vs vehicle (log rank test)” value in the data set with LLC murine tumor cells (LLC tumor, single agent) is “statistically significant difference in median survival time”. Further, the “average tumor volume over time vs vehicle (fitted exponential growth curves)” value in the data set with LLC murine tumor cells (LLC tumor, single agent, osmotic pumps, p<0.0001) was “statistically significant differences”. In addition, in data set [1] (mouse, in vivo), the “steady state plasma concentration of drug” value was in the range of 0.5 to 3 µM.
